Experimental findings from patent US5457106A, “Pyridine derivatives, their production and use” (Takeda Chemical Industries, Ltd., priority 1991, dated 1995) are described below.

In one experiment the test system is ICAM-1. As to the kind of experiment: Adhesion protein expression inhibitory activity, ICAM-1. The experiment is classed as cell-based. The settings on record: human umbilical vascular endothelial cells, TNF-α, 360 min. In a few lines: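 HUVECs pre-incubated with test compounds 15 minutes at 37° C., then stimulated with TNF-α at 1 ng/ml final for 3 hours (ELAM-1) or 6 hours (ICAM-1). Surface expression measured on glutaraldehyde-fixed cells by cell-ELISA using anti-ELAM-1 BBA-2 or anti-ICAM-1 BBA4 and HRP-labelled anti-mouse IgG.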

The test system of experiment [1] is Mouse phenylquinone writhing. As to the kind of experiment: Mouse phenylquinone writhing inhibitory activity. The experiment is classed as in vivo, mouse (Slc: ICR). The note with it: Mus musculus, po, 20 min, 50 mg/kg, orally; read-out: Inhibitory percentage (phenylquinone writhing). In a few lines:
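Male ICR mice (4 weeks, 17–24 g) dosed orally with compound suspended in 5% gum arabic. After 30 min, 0.02% phenylquinone (0.1 ml/10 g) given i.p.; writhing and stretching responses counted over 20 min.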

Experiment [2] deals with ART (antigen-responding T-cell). As to the kind of experiment: In vitro ART (antigen-responding T-cell) proliferation test. The experiment is classed as cell-based, Lewis rat. The note with it: Rattus norvegicus, T-cell, read-out: % Inhibition of ART growth.
For a further experiment, the target named is T1, cyclooxygenase (Rattus norvegicus, UniProt Q63921).
T1 construct: from tissue; host or cells: platelets in platelet-rich plasma from rat abdominal aorta blood (Jcl:wistar, male)
T1 sequence (Q63921 27-602): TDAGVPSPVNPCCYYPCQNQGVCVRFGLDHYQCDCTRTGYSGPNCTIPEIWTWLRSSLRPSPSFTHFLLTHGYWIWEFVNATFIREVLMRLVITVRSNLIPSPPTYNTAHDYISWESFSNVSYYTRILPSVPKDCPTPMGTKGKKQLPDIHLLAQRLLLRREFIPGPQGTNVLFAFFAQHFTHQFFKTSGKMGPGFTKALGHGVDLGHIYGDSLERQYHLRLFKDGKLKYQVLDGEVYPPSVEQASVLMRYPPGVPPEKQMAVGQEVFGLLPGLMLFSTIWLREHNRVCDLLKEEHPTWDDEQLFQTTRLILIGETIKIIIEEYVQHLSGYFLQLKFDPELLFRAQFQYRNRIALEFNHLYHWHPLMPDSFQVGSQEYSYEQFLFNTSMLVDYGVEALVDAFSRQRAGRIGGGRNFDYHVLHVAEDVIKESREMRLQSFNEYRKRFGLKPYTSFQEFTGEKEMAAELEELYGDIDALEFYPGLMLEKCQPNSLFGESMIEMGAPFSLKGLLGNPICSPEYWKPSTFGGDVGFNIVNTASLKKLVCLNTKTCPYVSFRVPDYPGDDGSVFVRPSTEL
As to the kind of experiment: Cyclooxygenase inhibitory activity (HHT formation from arachidonic acid in rat platelet-rich plasma). The experiment is classed as cell-based, rat (Jcl:wistar).

For experiment [3], the system named is brewer's yeast induced pyrexia. As to the kind of experiment: Antipyretic activity (brewer's yeast induced pyrexia). The experiment is classed as in vivo, rat (DS line). The settings on record: 50 mg/kg, orally. In a few lines:
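Male DS rats (7 weeks, 200-240 g) made febrile by s.c. 15% brewer's yeast 18 h before dosing; only animals at ≥38.5° C used. Compound given orally versus solvent control, with rectal temperature taken by thermistor hourly for 5 h post-dose.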

The test system of a further experiment is Rat adjuvant arthritis. As to the kind of experiment: Activity to rat adjuvant arthritis. The experiment is classed as in vivo, rat (SD or Lewis). The settings on record: 50 mg/kg, day 0 to day 13.
Experiment [4] deals with acute renal failure induced by renal ischemia followed by reperfusion in rats. As to the kind of experiment: Effect on acute renal failure induced by renal ischemia-reperfusion. It counts as in vivo, rat (Sprague-Dawley). The settings on record: 50 mg/kg, orally, 20 hours of reperfusion. As for the experimental part:
Effect On Acute Renal Failure Induced By Renal Ischemia-Reperfusion Male Sprague-Dawley rats (6 to 7 weeks old) were anesthetized using pentobarbital sodium (50 mg/kg, i.p.) and bilateral renal arteries were completely occluded for 45 minutes followed by reperfusion. After 20 hours of the reperfusion, the blood was collected from the abdominal aorta under anesthesia and the blood urea nitrogen (BUN) was determined.

The subject of experiment [5] is Mouse acetic acid writhing. As to the kind of experiment: Mouse acetic acid writhing inhibitory activity. The experiment is classed as in vivo, mouse (Slc: ICR). The settings on record: Mus musculus, po, 20 min, orally, read-out: Inhibitory percentage (acetic acid writhing). The method in brief: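 Male ICR mice, 4 weeks old, 10 per group, dosed orally (suspension in 5% gum arabic). After 30 min, 0.6% acetic acid given i.p. and writhing counted for 20 min. Percent inhibition calculated per animal against mean control response.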
A general note: Writhing tests count abdominal constrictions after an irritant is injected.

Another experiment deals with T2, 5-Lipoxygenase (Rattus norvegicus, UniProt P12527).
T2 construct: rat basophilic leukemia cell suspension; endogenous in cells
T2 sequence (P12527 1-673): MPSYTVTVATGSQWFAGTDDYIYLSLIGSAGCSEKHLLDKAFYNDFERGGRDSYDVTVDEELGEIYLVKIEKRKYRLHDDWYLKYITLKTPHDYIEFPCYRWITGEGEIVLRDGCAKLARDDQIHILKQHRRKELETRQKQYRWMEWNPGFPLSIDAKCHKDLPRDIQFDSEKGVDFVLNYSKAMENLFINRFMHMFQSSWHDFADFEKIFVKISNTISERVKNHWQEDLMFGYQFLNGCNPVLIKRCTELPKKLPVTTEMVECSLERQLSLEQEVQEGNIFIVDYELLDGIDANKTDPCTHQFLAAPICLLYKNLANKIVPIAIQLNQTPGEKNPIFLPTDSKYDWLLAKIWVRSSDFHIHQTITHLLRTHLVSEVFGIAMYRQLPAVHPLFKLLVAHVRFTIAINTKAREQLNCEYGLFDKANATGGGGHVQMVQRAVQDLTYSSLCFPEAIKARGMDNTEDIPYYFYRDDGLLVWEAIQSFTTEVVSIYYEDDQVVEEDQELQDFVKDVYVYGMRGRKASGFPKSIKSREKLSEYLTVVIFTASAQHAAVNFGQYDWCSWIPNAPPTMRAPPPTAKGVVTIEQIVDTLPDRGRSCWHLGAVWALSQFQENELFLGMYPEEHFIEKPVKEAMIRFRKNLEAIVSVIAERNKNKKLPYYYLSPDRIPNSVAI
As to the kind of experiment: 5-Lipoxygenase inhibitory activity in rat basophilic leukemia cells. The experiment is classed as cell-based. Here is the method:
5-Lipoxygenase Inhibitory Activity […] Then, 0.1 ml of mast cell medium containing 50 μg of arachidonic acid and 1 μg of calcium ionophore (A-23187) were added and the mixture was allowed to stand at 37° C. for 15 minutes. Ethanol (1 ml) was added thereto and the mixture was shaken well, and filtered (Membrane filter, 0.45 μm). […] As a control, the measurement was carried out according to the same manner except that 0.01 ml of the solvent used for dissolving the test compound was used in place of the test compound. The inhibitory percentage (%) was calculated from the following equation to obtain IC50.

The next experiment deals with ELAM-1. As to the kind of experiment: Adhesion protein expression inhibitory activity, ELAM-1. The experiment is classed as cell-based. The settings on record: 13 μM, human umbilical vascular endothelial cells, TNF-α; 180 min. As for the experimental part: Adhesion Protein Expression Inhibitory Activity The various concentrations of test compounds were added to the human umbilical cord-derived vascular endothelial cells [sold by Klabo] which were seeded in the gelatin coat plate and the mixture was incubated at 37° C. for 15 minutes. Then, the human tumor necrosis factor-α[TNF-α; sold by Genzyme] was added therein to the final concentration of 1 ng/ml and incubation was carried out at 37° C. for 3 hours for expression of ELAM-1 and for 6 hours for that of ICAM-I. After the reaction, the cells were fixed using glutaraldhyde and the expression amount of ELAM-1 and ICAM-1 was measured by the cell-ELISA method. That is, the expression was determined by […] the adhesion proteins on the cells in the system using anti-ELAM-1 antibody BBA-2 and anti-ICAM-1 antibody BBA4 as the first antibody as well as horseradish peroxidase-labeled rabbit anti-mouse IgG antibody as the second antibody.

pIC50: −log10 of the molar value. Like-named read-outs stand apart in the source and are kept apart here.

The term inhibition denotes the change of the read-out against control, counted positive when it falls. The term pIC50 denotes −log10 of the IC50, conventionally taken in molar units. Consider `Cl.O=C(N(CCCSc1ccncc1)Cc1ccccc1)C(F)(F)F` [Example 73, 4-[3-(N-benzyl-N-trifluoroacetylamino)propylthio]pyridine hydrochloride], for which the “Expression Inhibitory Potency, ICAM-1” value with ICAM-1 (30 μM) is 42%. In addition, the inhibition in vivo at 50 mg/kg in experiment [1] was 75%. In addition, in experiment [2], the inhibition at 1 µM was found to be 23% and the inhibition at 10 µM stood at 82%. For the same compound, the pIC50 against cyclooxygenase was 5.55. In experiment [3], the “Antipyretic activity, peak time” value worked out at 2 h. Moreover, the “Antipyretic activity, .increment. °C.” value in experiment [3] (at peak time) was -0.65 °C. Further, the Swelling inhibitory percentage in the experiment with Rat adjuvant arthritis was determined as 52%. In addition, in [4], the Blood urea nitrogen was 68 ± 3 mg/dL.
Take `O=C1SC(=Cc2ccccc2)C(=O)N1CCCCSc1ccncc1` [Example 150, 4-[4-(5-benzylidene-2,4-thiazolidinedione)butylthio]pyridine]: the “Expression Inhibitory Potency, ICAM-1” value in the experiment with ICAM-1 (30 μM) was found to be 94%. Further, in experiment [2], the inhibition at 1 µM was -31% and the inhibition at 10 µM came out at 75%. Further, in experiment [5], the inhibition in vivo at 50 mg/kg was determined as 54%. Further, the pIC50 at 5-Lipoxygenase (5-HETE, read-out: 5-Lipoxygenase inhibitory activity, 5-HETE IC50) was 5.59. Further, the pIC50 on 5-Lipoxygenase (LTB4, read-out: 5-Lipoxygenase inhibitory activity, LTB4 IC50) was 5.60. Moreover, the Blood urea nitrogen in experiment [4] worked out at 76.8 ± 16.9 mg/dL.
On to `CCCC=C1SC(=O)N(CCCCSc2ccncc2)C1=O` [Example 171, 4-[4-(5-propylmethylene-2,4-thiazolidinedione)butylthio]pyridine], for which the “Expression Inhibitory Potency, ICAM-1” value with ICAM-1 (13 μM) is on record as 75%. For the same compound, the “Expression Inhibitory Potency, ELAM-1” value in the experiment with ELAM-1 is reported as 94%. Further, in experiment [2], the inhibition at 1 µM was found to be 96% and the inhibition at 10 µM is 41%. In [4], this compound yielded a Blood urea nitrogen of 64 ± 11 mg/dL.
